Values after ≈ are worked out from the molar mass of the structure shown. Where two headings read alike, the source gives them in different places.
Columns and labels:
Type in all cases: cell-based
[1] = tested on: S. aureus DSM 11823, clone 16 (MSSA, quinolone-resistant); experiment: microbe, parasite or virus in culture; conditions: Staphylococcus aureus
Description: (§1) MIC-testing was done immediately after preparation of the dilutions. All tests were done in duplicate and repeated once on a separate occasion.
(§2) 1 mL of the bacterial suspension was transferred into a tube containing 10 mL CAMHB and was vortexed thoroughly. (S. pneumoniae 1 mL in 10 mL CAMHB+5% lysed horse blood). Columns 1-15 of the 96-well plate were inoculated with 5 μL of this suspension (1-15=antibacterial solution, 16=sterile medium without test item).
(§3) Turbidity was read visually with a mirror.

[2] = tested on: Gram-positive strains tested; experiment: MIC testing, statements on the Gram-positive strain panel; conditions: read-out: MIC (inhibitory concentration)
Excerpt: as §1

[3] = tested on: Gram-negative test strains (Enterobacteriaceae, non-fermenters); experiment: MIC testing, statements on the Gram-negative strain panel
Excerpt: as §1

[4] = tested on: K. pneumoniae NRZ-00103 (KPC-2); experiment: MIC, broth microdilution (CLSI), CAMHB; conditions: Klebsiella pneumoniae
Description: as §1, §2, §3

[5] = tested on: S. pneumoniae ATCC 33400; experiment: MIC, broth microdilution (CLSI), CAMHB; conditions: Streptococcus pneumoniae
Description: as §1, §2, §3

[6] = tested on: S. pneumoniae BAY 19397 (penicillin-, macrolide-, quinolone-resistant); experiment: MIC, broth microdilution (CLSI), CAMHB; conditions: Streptococcus pneumoniae
Description: as §1, §2, §3

[7] = tested on: K. pneumoniae NRZ-00002 (OXA-48); experiment: MIC, broth microdilution (CLSI), CAMHB; conditions: Klebsiella pneumoniae
Description: as §1, §2, §3

[8] = tested on: E. faecalis ATCC 29212; experiment: MIC, broth microdilution (CLSI), CAMHB; conditions: Enterococcus faecalis
Description: as §1, §2, §3

[9] = tested on: E. faecium UW 3695 (linezolid and quinolone-resistant); experiment: MIC, broth microdilution (CLSI), CAMHB; conditions: Enterococcus faecium
Description: as §1, §2, §3

[10] = tested on: E. coli NRZ-00401 (metallo β-lactamase VIM-1); experiment: MIC, broth microdilution (CLSI), CAMHB; conditions: Escherichia coli
Description: as §1, §2, §3

[11] = tested on: E. coli NRZ-00302 (metallo β-lactamase NDM-1); experiment: MIC, broth microdilution (CLSI), CAMHB; conditions: Escherichia coli
Description: as §1, §2, §3

[12] = tested on: P. mirabilis ATCC 9240; experiment: MIC, broth microdilution (CLSI), CAMHB; conditions: Proteus mirabilis
Description: as §1, §2, §3

[13] = tested on: P. aeruginosa NRZ-00425 (VIM-1); experiment: MIC, broth microdilution (CLSI), CAMHB; conditions: Pseudomonas aeruginosa
Description: as §1, §2, §3

[14] = tested on: S. aureus ATCC 33593 (MRSA); experiment: MIC, broth microdilution (CLSI), CAMHB; conditions: Staphylococcus aureus
Description: as §1, §2, §3

[15] = tested on: P. aeruginosa ATCC 10145; experiment: MIC, broth microdilution (CLSI), CAMHB; conditions: Pseudomonas aeruginosa
Description: as §1, §2, §3

[16] = tested on: E. coli GNS-2601 (ESBL CTX-M-15); experiment: MIC, broth microdilution (CLSI), CAMHB; conditions: Escherichia coli
Description: as §1, §2, §3

[17] = tested on: K. pneumoniae NRZ-00535 (VIM-1); experiment: MIC, broth microdilution (CLSI), CAMHB; conditions: Klebsiella pneumoniae
Description: as §1, §2, §3

[18] = tested on: P. mirabilis NRZ-00185 (AmpC, type CMY-2); experiment: MIC, broth microdilution (CLSI), CAMHB; conditions: Proteus mirabilis
Description: as §1, §2, §3

[19] = tested on: S. aureus ATCC 29213; experiment: MIC, broth microdilution (CLSI), CAMHB; conditions: Staphylococcus aureus
Description: as §1, §2, §3

[20] = tested on: E. coli ATCC 25922; experiment: MIC, broth microdilution (CLSI), CAMHB; conditions: Escherichia coli
Description: as §1, §2, §3

[21] = tested on: E. faecalis V583 (VanB); experiment: MIC, broth microdilution (CLSI), CAMHB; conditions: Enterococcus faecalis
Description: as §1, §2, §3

[22] = tested on: E. faecium DSMZ 2146; experiment: MIC, broth microdilution (CLSI), CAMHB; conditions: Enterococcus faecium
Description: as §1, §2, §3

[23] = tested on: S. aureus NRS-119 (MRSA, linezolid- and quinolone-resistant); experiment: MIC, broth microdilution (CLSI), CAMHB; conditions: Staphylococcus aureus
Description: as §1, §2, §3

[24] = tested on: S. aureus Visa Mu 50 (MRSA, vancomycin intermediate susceptible); experiment: MIC, broth microdilution (CLSI), CAMHB; conditions: Staphylococcus aureus
Description: as §1, §2, §3

[25] = tested on: E. cloacae NRZ-00239 (VIM-1); experiment: MIC, broth microdilution (CLSI), CAMHB; conditions: Enterobacter cloacae
Description: as §1, §2, §3

[26] = tested on: K. pneumoniae ATCC 13883; experiment: MIC, broth microdilution (CLSI), CAMHB; conditions: Klebsiella pneumoniae
Description: as §1, §2, §3

[27] = tested on: E. cloacae ATCC 13047; experiment: MIC, broth microdilution (CLSI), CAMHB; conditions: Enterobacter cloacae
Description: as §1, §2, §3

[28] = remainder / remaining / all other test strains, as worded for each agent, read-out: MIC
[29] = monosubstance, Kp NRZ00103, read-out: MIC
[30] = monosubstance, Kp NRZ00002, read-out: MIC
[31] = monosubstance, Ec NRZ00401, read-out: MIC
[32] = monosubstance, Ec NRZ00302, read-out: MIC
[33] = monosubstance, Pm ATCC9240, read-out: MIC
[34] = monosubstance, Pa NRZ00425, read-out: MIC
[35] = monosubstance, Pa ATCC10145, read-out: MIC
[36] = monosubstance, Ec GNS2601, read-out: MIC
[37] = monosubstance, Kp NRZ00535, read-out: MIC
[38] = monosubstance, Pm NRZ00185, read-out: MIC
[39] = monosubstance, Ec ATCC25922, read-out: MIC
[40] = monosubstance, Ecl NRZ00239, read-out: MIC
[41] = monosubstance, Kp ATCC13883, read-out: MIC
[42] = monosubstance, Ecl ATCC13047, read-out: MIC

Row | SMILES | MIC [1] | MIC [4] | MIC [11] | MIC [13] | MIC [16] | MIC [17] | MIC [18] | MIC [3, 28] | MIC [4, 29] | MIC [7, 30] | MIC [10, 31] | MIC [11, 32] | MIC [12, 33] | MIC [13, 34] | MIC [15, 35] | MIC [16, 36] | MIC [20, 39] | MIC [25, 40] | MIC [26, 41] | MIC [27, 42] | further results
1 | CN(C)c1cc(NC(=O)CNC(C)(C)C)c(O)c2c1C[C@H]1C[C@H]3[C@H](N(C)C)C(O)=C(C(N)=O)C(=O)[C@@]3(O)C(O)=C1C2=O [tigecycline] | 0.125 µg/mL (≈ 0.213 µM) | 4 µg/mL (≈ 6.83 µM) | 2 µg/mL (≈ 3.41 µM) | 32 µg/mL (≈ 54.6 µM) | 4 µg/mL (≈ 6.83 µM) | 2 µg/mL (≈ 3.41 µM) | 8 µg/mL (≈ 13.7 µM) |  |  |  |  |  |  |  |  |  |  |  |  |  | MIC [2]: < 0.5 µg/mL; MIC [3]: > 2 µg/mL; MIC ([5]; ATCC33400): 0.0075 µg/mL (≈ 0.0128 µM); MIC [6]: 0.0075 µg/mL (≈ 0.0128 µM); MIC [7]: 2 µg/mL (≈ 3.41 µM); MIC ([8]; ATCC29212): 0.25 µg/mL (≈ 0.427 µM); MIC [9]: 0.25 µg/mL (≈ 0.427 µM); MIC [10]: 2 µg/mL (≈ 3.41 µM); MIC ([12]; ATCC9240): 8 µg/mL (≈ 13.7 µM); MIC [14]: 0.25 µg/mL (≈ 0.427 µM); MIC ([15]; ATCC10145): 16 µg/mL (≈ 27.3 µM); MIC ([19]; ATCC29213): 0.25 µg/mL (≈ 0.427 µM); MIC ([20]; ATCC25922): 0.5 µg/mL (≈ 0.854 µM); MIC [21]: 0.25 µg/mL (≈ 0.427 µM); MIC ([22]; DSMZ2146): 0.25 µg/mL (≈ 0.427 µM); MIC [23]: 0.25 µg/mL (≈ 0.427 µM); MIC [24]: 0.5 µg/mL (≈ 0.854 µM); MIC [25]: 2 µg/mL (≈ 3.41 µM); MIC ([26]; ATCC13883): 2 µg/mL (≈ 3.41 µM); MIC ([27]; ATCC13047): 2 µg/mL (≈ 3.41 µM)
2 | CC(=O)NC[C@H]1CN(c2ccc(N3CCOCC3)c(F)c2)C(=O)O1 [linezolid] | 2 µg/mL (≈ 5.93 µM) |  |  |  |  |  |  |  |  |  |  |  |  |  |  |  |  |  |  |  | MIC ([2]; all the test strains except S. aureus NRS-119 and E. faecium UW 3695): < 4 µg/mL; MIC ([5]; monosubstance, Spn ATCC33400, read-out: MIC): 2 µg/mL (≈ 5.93 µM); MIC ([6]; monosubstance, Spn 19397, read-out: MIC): 1 µg/mL (≈ 2.96 µM); MIC ([8]; monosubstance, Ef ATCC29212, read-out: MIC): 4 µg/mL (≈ 11.9 µM); MIC ([9]; monosubstance, Efc UW3695, read-out: MIC): 16 µg/mL (≈ 47.4 µM); MIC ([14]; monosubstance, Sa ATCC33593, read-out: MIC): 2 µg/mL (≈ 5.93 µM); MIC ([19]; monosubstance, Sa ATCC29213, read-out: MIC): 2 µg/mL (≈ 5.93 µM); MIC ([21]; monosubstance, Ef V583, read-out: MIC): 2 µg/mL (≈ 5.93 µM); MIC ([22]; monosubstance, Efc DSMZ2146, read-out: MIC): 4 µg/mL (≈ 11.9 µM); MIC ([23]; monosubstance, Sa NRS119, read-out: MIC): 64 µg/mL (≈ 190 µM); MIC ([24]; monosubstance, Sa VisaMu50, read-out: MIC): 4 µg/mL (≈ 11.9 µM)
3 | NC[C@H]1O[C@H](O[C@H]2[C@H](O)[C@@H](O[C@H]3O[C@H](CO)[C@@H](O)[C@H](N)[C@H]3O)[C@H](N)C[C@@H]2N)[C@H](N)C[C@@H]1O [tobramycin] |  |  |  |  |  |  |  | > 4 µg/mL | 16 µg/mL (≈ 34.2 µM) | 16 µg/mL (≈ 34.2 µM) | 4 µg/mL (≈ 8.56 µM) | 64 µg/mL (≈ 137 µM) | 0.5 µg/mL (≈ 1.07 µM) | > 128 µg/mL | 0.5 µg/mL (≈ 1.07 µM) | 32 µg/mL (≈ 68.4 µM) | 1 µg/mL (≈ 2.14 µM) | 4 µg/mL (≈ 8.56 µM) | 0.125 µg/mL (≈ 0.267 µM) | 0.25 µg/mL (≈ 0.535 µM) | MIC [17, 37]: 8 µg/mL (≈ 17.1 µM); MIC [18, 38]: 0.125 µg/mL (≈ 0.267 µM)
4 | CC(C)(O/N=C(\C(=O)N[C@@H]1C(=O)N2C(C(=O)[O-])=C(C[n+]3ccccc3)CS[C@H]12)c1csc(N)n1)C(=O)O [ceftazidime] |  | > 256 µg/mL | > 256 µg/mL |  | 128 µg/mL (≈ 234 µM) | > 256 µg/mL | 128 µg/mL (≈ 234 µM) | > 2 µg/mL |  | 64 µg/mL (≈ 117 µM) | 32 µg/mL (≈ 58.5 µM) |  | 0.5 µg/mL (≈ 0.915 µM) | 32 µg/mL (≈ 58.5 µM) | 2 µg/mL (≈ 3.66 µM) |  | 0.03 µg/mL (≈ 0.0549 µM) | 4 µg/mL (≈ 7.32 µM) | 0.25 µg/mL (≈ 0.457 µM) | 2 µg/mL (≈ 3.66 µM) | MIC ([3]; E. coli, K. pneumoniae, and P. mirabilis wild type strains, read-out: MIC (inhibitory concentration)): < 0.5 µg/mL
5 | C[C@@H](O)[C@H]1C(=O)N2C(C(=O)O)=C(SCCN=CN)C[C@H]12 [imipenem] |  |  |  | 128 µg/mL (≈ 428 µM) |  |  |  |  | 32 µg/mL (≈ 107 µM) | 2 µg/mL (≈ 6.68 µM) | 4 µg/mL (≈ 13.4 µM) | 4 µg/mL (≈ 13.4 µM) | 1 µg/mL (≈ 3.34 µM) |  | 0.5 µg/mL (≈ 1.67 µM) | 0.03 µg/mL (≈ 0.1 µM) | 0.03 µg/mL (≈ 0.1 µM) | 0.25 µg/mL (≈ 0.835 µM) | 0.25 µg/mL (≈ 0.835 µM) | 0.25 µg/mL (≈ 0.835 µM) | MIC ([3]; all the test strains except P. aeruginosa NRZ-00185 and K. pneumoniae NRZ-00103, read-out: MIC (inhibitory concentration)): < 8 µg/mL; MIC [17, 37]: 8 µg/mL (≈ 26.7 µM); MIC [18, 38]: 1 µg/mL (≈ 3.34 µM)
